Data reported in patent US4351337A, “Biodegradable, implantable drug delivery device, and process for preparing and using the same” (Arthur D. Little, Inc., priority 1980, dated 1982).
“Also recorded” adds a separate entry of the source.

Assays:
[1] = Naltrexone saturation in Earle's solution; assay type: physicochemical; conditions: Earle's Balanced Salt Solution, 37° C.; read-out: saturation concentration
Method: The resulting implants were evaluated by both in vitro and in vivo techniques. In making the in vitro evaluations the films were measured for weight, thickness, and surface area, and were then rinsed briefly with Earle's Balanced Salt Solution (IX--without phenol red, Grand Island Biological Company). Individual films were placed in stoppered test tubes containing 10 ml of the Earle's solution. The tubes were placed in a shaker water bath at 37° C. and were gently agitated. Drug concentration of the solution was periodically assayed by scintillation counting techniques to permit an evaluation of the in vitro drug-release behavior of the copolymers. (The solutions were replaced sufficiently frequently that the naltrexone concentration remained far below saturation, i.e., below ~460 mg/100 ml).

[2] = Tritium excretion in urine of rats given labelled prednisolone; assay type: in vivo, rat (female CD); conditions: for Tritium in urine of rats: group 3, control, s.c. injection 1.0 mg/rat
Method: These implants contained from 0.65 to 2.0 mg of radioactively-labelled prednisolone, depending on the size of the implant rectangle. The implants were sterilized by immersion in alcohol and then rinsed with sterile Earle's Balanced Salt Solution. The devices were implanted subcutaneously into the backs of two groups each of eight female CD rats (Charles River Breeding Laboratories, Inc.). To accomplish the implantations, the dorsal area was shaved, cleaned with alcohol and then a one-half inch incision was made in the skin. The skin was then separated from the muscle tissue and the implant inserted at this site. The incision was then sutured.
Each animal of a third group of four female CD rats from the same source was subcutaneously injected with 0.5 cc of an 0.5% hydroxy propylcellulose solution containing an amount of the same radioactiviely labelled prednisolone approximately equivalent to that contained in the implant devices (i.e., 1 mg prednisolone/rat).
All of the animals were housed in metabolic cages. The radioactivities in the urines collected were measured by the standard procedure of scintillation counting, and from these measurements values of disintegrations per minute (DPM) were calculated. Radioactivities were thus measured every 24 hours for the first four days and then for an additional 72 hour level to complete a week of testing.
The average DPM values obtained for the two groups of implanted rats (average dosage of 1.5 mg/rat) and the one group of control rats (average dosage of 1.0 mg/rat) are given in Table 1. During the first day a number of rats escaped from their cages so that the average figures given are for fewer than the total number of animals in each group.

| SMILES | solubility [1] | Tritium in urine of rats ([2]; 0-24 h) | Tritium in urine of rats ([2]; 24-48 h) | Tritium in urine of rats ([2]; 48-72 h) | Tritium in urine of rats ([2]; 72-96 h) | Tritium in urine of rats ([2]; 96-168 h, minus values indicate noise) | excretion / drug release in words ([2]; implants to one week, control first 24 h and end of fourth day) |
| --- | --- | --- | --- | --- | --- | --- | --- |
| O=C1CC[C@@]2(O)[C@H]3Cc4ccc(O)c5c4[C@@]2(CCN3CC2CC2)[C@H]1O5 [naltrexone] | ~4.6 mg/mL |  |  |  |  |  |  |
| C[C@]12C=CC(=O)C=C1CC[C@@H]1[C@@H]2[C@@H](O)C[C@@]2(C)[C@H]1CC[C@]2(O)C(=O)CO [prednisolone] |  | 33,038 DPM | 4,424 DPM | 3,335 DPM | 86 DPM | -248 DPM | very high excretion rates in the first 24 hours; also recorded: practically no excretion of radioactive material |
